Data reported in PubChem BioAssay (NCI).
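How tested: cells in 96-well plates exposed to compound for 48 hours at five concentrations. The concentration for full growth arrest is given as TGI.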

What was measured:
Assay in all cases: NCI anticancer screen, dose series, 48 h
[1] = tested on: SF-539 CNS
[2] = tested on: DLD-1 colon
[3] = tested on: OVCAR-3 ovarian
[4] = tested on: KM12 colon
[5] = tested on: A498 renal
[6] = tested on: MOLT-4 leukemia
[7] = tested on: SF-268 CNS
[8] = tested on: HCT-15 colon
[9] = tested on: OVCAR-8 ovarian
[10] = tested on: SNB-19 CNS
[11] = tested on: SK-MEL-5 melanoma
[12] = tested on: NCI-H226 lung
[13] = tested on: SF-295 CNS
[14] = tested on: OVCAR-4 ovarian
[15] = tested on: LXFL 529 NSCLC
[16] = tested on: NCI-H23 lung
[17] = tested on: M14 melanoma
[18] = tested on: SW-620 colon
[19] = tested on: HT29 colon
[20] = tested on: TK-10 renal
[21] = tested on: HOP-62 NSCLC
[22] = tested on: COLO 205 colon
[23] = tested on: SNB-75 CNS
[24] = tested on: SK-MEL-2 melanoma
[25] = tested on: IGROV1 ovarian
[26] = tested on: CCRF-CEM leukemia
[27] = tested on: 786-0 renal
[28] = tested on: ACHN renal
[29] = tested on: SN12C renal
[30] = tested on: SNB-78 CNS
[31] = tested on: LOX IMVI melanoma
[32] = tested on: U251 CNS
[33] = tested on: RPMI-8226 leukemia
[34] = tested on: KM20L2 colon
[35] = tested on: HL-60(TB) leukemia
[36] = tested on: HOP-18 NSCLC
[37] = tested on: EKVX NSCLC
[38] = tested on: MALME-3M melanoma
[39] = tested on: SK-OV-3 ovarian
[40] = tested on: HCT-116 colon
[41] = tested on: CAKI-1 renal
[42] = tested on: NCI-H522 lung
[43] = tested on: UACC-62 melanoma
[44] = tested on: NCI-H460 lung
[45] = tested on: RXF 393 renal
[46] = tested on: HCC-2998 colon
[47] = tested on: DMS 273 small cell lung
[48] = tested on: K-562 leukemia
[49] = tested on: UACC-257 melanoma
[50] = tested on: M19-MEL melanoma
[51] = tested on: A549 NSCLC
[52] = tested on: UO-31 renal
[53] = tested on: SR leukemia
[54] = tested on: T-47D breast
[55] = tested on: MCF7 breast
[56] = tested on: PC-3 prostate
[57] = tested on: HOP-92 NSCLC
[58] = tested on: MDA-MB-231 breast
[59] = tested on: SK-MEL-28 melanoma
[60] = tested on: BT-549 breast
[61] = tested on: NCI/ADR-RES ovarian
[62] = tested on: DU-145 prostate
[63] = tested on: MDA-N
[64] = tested on: MDA-MB-435
[65] = tested on: DMS 114 small cell lung
[66] = tested on: OVCAR-5 ovarian
[67] = tested on: XF 498 CNS

CC(C)CCCC(C)[C@H]1CCC2[C@@H]3CCC4Nc5nocc5C[C@]4(C)C3CC[C@@]21C (stereo not given in full)
TGI [1]: 33.5 µM | TGI [2]: 41 µM | TGI [3]: 20.5 µM | TGI [4]: 38.4 µM | TGI [5]: 36.1 µM | TGI [6]: 46.5 µM | TGI [7]: 36.8 µM | TGI [8]: 30.3 µM | TGI [9]: 35.9 µM | TGI [10]: 37.5 µM | TGI [11]: 29.2 µM | TGI [12]: 37.3 µM | TGI [13]: 34 µM | TGI [14]: 39.3 µM | TGI [15]: 27.3 µM | TGI [16]: 31.4 µM | TGI [17]: 41.8 µM | TGI [18]: 31.4 µM | TGI [19]: 37.1 µM | TGI [20]: 21.1 µM | TGI [21]: > 100 µM | TGI [22]: 20.4 µM | TGI [23]: 33.8 µM | TGI [24]: 38.7 µM | TGI [25]: 57 µM | TGI [26]: 36.9 µM | TGI [27]: 25.9 µM | TGI [28]: 28.6 µM | TGI [29]: 33.8 µM | TGI [30]: 42.1 µM | TGI [31]: 4.95 µM | TGI [32]: 32 µM | TGI [33]: 69.3 µM | TGI [34]: 41.7 µM | TGI [35]: 27.6 µM | TGI [36]: 34.7 µM | TGI [37]: 31.3 µM | TGI [38]: 40.2 µM | TGI [39]: 34.8 µM | TGI [40]: 32.4 µM | TGI [41]: 29 µM | TGI [42]: 14.5 µM | TGI [43]: 40.7 µM | TGI [44]: 47.1 µM | TGI [45]: 28.5 µM | TGI [46]: 29.5 µM | TGI [47]: 37.3 µM | TGI [48]: 38.3 µM | TGI [49]: 39.5 µM | TGI [50]: 33.7 µM | TGI [51]: 54.8 µM | TGI [52]: 27.9 µM

CN(C)C(=S)/N=c1\ssc(=S)n1Cc1ccccc1
TGI [53]: 37.3 µM | TGI [1]: 1.49 µM | TGI [2]: > 55.1 µM | TGI [3]: 0.512 µM | TGI [4]: > 100 µM | TGI [5]: > 69.5 µM | TGI [6]: 29 µM | TGI [7]: > 63.1 µM | TGI [8]: > 49.6 µM | TGI [9]: 17.7 µM | TGI [10]: > 56.2 µM | TGI [11]: 18.3 µM | TGI [54]: > 31.6 µM | TGI [55]: > 46.4 µM | TGI [12]: 28 µM | TGI [13]: 6.29 µM | TGI [14]: 30.2 µM | TGI [15]: > 100 µM | TGI [16]: 24.8 µM | TGI [17]: 13 µM | TGI [18]: > 46.4 µM | TGI [56]: 35.5 µM | TGI [19]: 11.7 µM | TGI [57]: 7.63 µM | TGI [20]: 47.1 µM | TGI [21]: 20.7 µM | TGI [22]: 1.95 µM | TGI [23]: 3.29 µM | TGI [24]: 9.67 µM | TGI [25]: > 46.4 µM | TGI [58]: 42.6 µM | TGI [59]: > 63.1 µM | TGI [26]: 49.6 µM | TGI [27]: 15.9 µM | TGI [60]: > 100 µM | TGI [61]: 0.401 µM | TGI [28]: > 56.2 µM | TGI [29]: > 63.1 µM | TGI [30]: > 100 µM | TGI [31]: > 63.1 µM | TGI [32]: 18.6 µM | TGI [33]: 31.6 µM | TGI [34]: 0.388 µM | TGI [35]: 5.31 µM | TGI [62]: 21.7 µM | TGI [63]: 1.21 µM | TGI [64]: 0.269 µM | TGI [65]: 0.456 µM | TGI [36]: > 100 µM | TGI [37]: 57.6 µM | TGI [38]: 30.7 µM | TGI [39]: 5.27 µM | TGI [40]: 29.6 µM | TGI [41]: > 56.2 µM | TGI [42]: 0.617 µM | TGI [43]: 16.8 µM | TGI [44]: 22.6 µM | TGI [66]: > 63.1 µM | TGI [45]: 1 µM | TGI [46]: > 27.7 µM | TGI [48]: 12.5 µM | TGI [49]: > 56.2 µM | TGI [50]: > 100 µM | TGI [51]: 56 µM | TGI [52]: 54 µM

OCC1C(/C=C/c2ccoc2)ON2CCCC12 (stereo not given)
TGI [1]: > 100 µM | TGI [2]: > 100 µM | TGI [4]: > 100 µM | TGI [7]: > 100 µM | TGI [9]: > 100 µM | TGI [10]: > 100 µM | TGI [12]: > 100 µM | TGI [13]: > 100 µM | TGI [14]: > 100 µM | TGI [15]: > 100 µM | TGI [16]: > 100 µM | TGI [17]: > 100 µM | TGI [18]: > 100 µM | TGI [19]: > 100 µM | TGI [20]: > 100 µM | TGI [21]: > 100 µM | TGI [22]: > 100 µM | TGI [23]: > 100 µM | TGI [24]: > 100 µM | TGI [59]: > 100 µM | TGI [27]: > 100 µM | TGI [28]: > 100 µM | TGI [29]: > 100 µM | TGI [30]: > 100 µM | TGI [31]: > 100 µM | TGI [32]: > 100 µM | TGI [67]: > 100 µM | TGI [34]: > 100 µM | TGI [35]: > 100 µM | TGI [36]: 86 µM | TGI [37]: > 100 µM | TGI [38]: > 100 µM | TGI [41]: > 100 µM | TGI [42]: > 100 µM | TGI [44]: > 100 µM | TGI [66]: > 100 µM | TGI [45]: > 100 µM | TGI [46]: > 100 µM | TGI [47]: > 100 µM | TGI [49]: > 100 µM | TGI [50]: > 100 µM | TGI [51]: > 100 µM | TGI [52]: > 100 µM
